The data set is described as follows: Partition coefficient Kpart between n-octanol and aqueous tris hydrochloride. It counts as physicochemical. Particulars: n-octanol / aqueous tris hydrochloride (20 mM, pH 7.4); for logD: octanol/tris hydrochloride 20 mm. The protocol:
The partition coefficients of four or five samples of each of the compounds of Examples 2 and 4 were measured using essentially the procedure described in Example 25 of UK Patent No. 2 136 807. For comparative purposes a similar measurement was made for the compound 1-(2-acetoxyethyl)-2-ethyl-3-hydroxypyridin-4-one which was prepared by an analogous procedure to that of Example 5 using acetyl chloride in place of isobutyryl chloride. The results obtained for the partition coefficient Kpart, being the ratio (concentration of compound in n-octanol)/concentration of compound in aqueous phase on partition between n-octanol and aqueous tris hydrochloride (20 mM, pH 7.4), are shown in the Table.

[1] abbreviates: pH 7.4, mean of four or five samples, read-out: partition coefficient Kpart, Mean ± S.E. (converted).

Values joined by “and” are separate entries in the source; they are usually repeats but may differ in a detail not shown here. Identical values can stand only once. Like-named read-outs stand apart in the source and are kept apart here.

Turning to `CCc1c(O)c(=O)ccn1CCOC(C)=O` [CH3 COO, 1-(2-acetoxyethyl)-2-ethyl-3-hydroxypyridin-4-one, reference compound], under “individual samples 1-5”, the “partition coefficient Kpart (concentration in n-octanol / concentration in aqueous phase), individual samples” value is 1.500 and 0.948 and 0.940 and 0.962. Further, the logD under setting [1] is 0.0366.

For the molecule `CCc1c(O)c(=O)ccn1CCOC(=O)C(C)(C)C` [Example 2, 2-ethyl-3-hydroxy-1-(2-pivaloyloxyethyl)pyridin-4-one], the “partition coefficient Kpart (concentration in n-octanol / concentration in aqueous phase), individual samples” value (individual samples 1-5, listed as (CH3)3 CCOO) is 5.104 and 7.992 and 3.870 and 6.742 and 6.855. Also, under “mean of four or five samples”, the “partition coefficient Kpart, Mean ± S.E.” value turned out to be 6.113 ± 1.622.

`CCc1c(O)c(=O)ccn1CCOC(=O)C(C)C` [Example 4, 2-ethyl-3-hydroxy-1-[2-(α-methylpropionyloxy)ethyl]pyridin-4-one]: for the setting “individual samples 1-5, listed as (CH3)2 CHCOO”, the “partition coefficient Kpart (concentration in n-octanol / concentration in aqueous phase), individual samples” value was 4.541 and 4.224 and 4.797. In addition, the logD is, setting by setting: under setting [1], 0.667; (individual samples 1-5, read-out: partition coefficient Kpart (concentration in n-octanol / concentration in aqueous phase), individual samples (converted)) 0.699.

For the origin of these results see US5480894A, “3-hydroxypyridin-4-one derivatives as chelating agents” (British Technology Group Limited, priority 1992, dated 1996).
